System: Human dermal fibroblasts (Tig109 line)
Assay: Human iPS cell colony formation, 3 genes introduced, various p38 inhibitors
Type: cell-based
Conditions: 10 μM inhibitor
Description: Human dermal fibroblasts (Tig109 line) were treated using a lentivirus (pLenti6/UbC-Slc7a1) according to the method described by Takahashi, K. et al. in Cell, 131: 861-872 (2007), to express the mouse ecotropic virus receptor Slc7a1 gene. These cells (2×10^5 cells/10 cm dish) were transfected with the four genes using a retrovirus according to the method described by Takahashi, K. et al. in Cell, 131: 861-872 (2007); each compound was added per the schedule shown below. • 1. Oct3/4, Sox2, Klf4, c-Myc, each derived from human, saline • 2. Oct3/4, Sox2, Klf4, c-Myc, each derived from human, DMSO (Day 5-35) • 3. Oct3/4, Sox2, Klf4, c-Myc, each derived from human, SB202190 10 μM (Day 5-20) • 4. Oct3/4, Sox2, Klf4, c-Myc, each derived from human, SB239063 10 μM (Day 5-20) • 5. Oct3/4, Sox2, Klf4, c-Myc, each derived from human, SB202190 10 μM (Day 21-35) • 6. Oct3/4, Sox2, Klf4, c-Myc, each derived from human, SB239063 10 μM (Day 21-35) • 7. Oct3/4, Sox2, Klf4, c-Myc, each derived from human, SB202190 10 μM (Day 5-35) • 8. Oct3/4, Sox2, Klf4, c-Myc, each derived from human, SB239063 10 μM (Day 5-35) Subsequently, three genes (Oct3/4, Sox2, Klf4) were introduced using a retrovirus in the same manner, and the efficiency of iPS cell establishment was compared. • 1. Oct3/4, Sox2, Klf4, each derived from human, saline • 2. Oct3/4, Sox2, Klf4, each derived from human, DMSO (Day 5-35) • 3. […]

In the case of `Oc1ccc(-c2nc(-c3ccc(F)cc3)c(-c3ccncc3)[nH]2)cc1` [SB202190, 4-(4-fluorophenyl)-2-(4-hydroxyphenyl)-5-(4-pyridyl)imidazole], the “number of iPS cell colonies on day 40 after the infection compared with physiological saline and DMSO” value is reported as “increased remarkably” and the “number of positive colonies on day 32 after the infection compared with physiological saline and DMSO” value is reported as “increased”.
